Laboratory results published in patent publication US6949544B2, “Inhibitors of c-Jun N-terminal kinases (JNK) and other protein kinases” (Vertex Pharmaceuticals Incorporated, priority 2001, dated 2005).

How the values were obtained:
Assay type in all cases: biochemical
[1] = target: Glycogen Synthase Kinase 3 (GSK-3) (Homo sapiens, UniProt P49841); experiment: GSK-3 inhibition assay (standard coupled enzyme assay); settings: 60 nM GSK-3, 10 μM ATP; read-out: GSK-3 Inhibitory Activity (Ki rating A-C)
Sequence of Glycogen Synthase Kinase 3 (GSK-3) (P49841 whole entry): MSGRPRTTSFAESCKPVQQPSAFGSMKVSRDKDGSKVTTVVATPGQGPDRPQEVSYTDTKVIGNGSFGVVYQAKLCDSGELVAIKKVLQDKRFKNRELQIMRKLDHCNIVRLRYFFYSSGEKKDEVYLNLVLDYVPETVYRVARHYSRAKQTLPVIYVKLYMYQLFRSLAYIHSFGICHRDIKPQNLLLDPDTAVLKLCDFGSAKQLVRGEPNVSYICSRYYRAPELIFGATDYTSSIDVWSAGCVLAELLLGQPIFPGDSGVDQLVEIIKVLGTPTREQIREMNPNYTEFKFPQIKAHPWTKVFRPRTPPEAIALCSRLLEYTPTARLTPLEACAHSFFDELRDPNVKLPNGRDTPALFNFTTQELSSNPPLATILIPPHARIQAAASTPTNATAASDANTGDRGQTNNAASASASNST
Experimental: Compounds were screened in the following manner for their ability to inhibit Glycogen Synthase Kinase 3 (GSK-3) using a standard coupled enzyme assay (Fox et al (1998) Protein Sci 7, 2249). To an assay stock buffer solution containing 0.1M HEPES 7.5, 10 mM MgCl2, 25 mM NaCl, 2.5 mM phosphoenolpyruvate, 300 μM NADH, 1 mM DTT, 30 μg/mL pyruvate kinase, 10 μg/mL lactate dehydrogenase, 300 μM peptide (HSSPHQp-SEDEEE, American Peptide, Sunnyvale, Calif.), and 60 nM GSK-3, was added a 30 μM solution of the compound in DMSO and the resulting mixture incubated at 30° C. for 5 min. The reaction was initiated by the addition of 10 μM ATP. The rates of reaction were obtained by monitoring absorbance at 340 nm over a 5 minute read time at 30° C. using a Molecular Devices plate reader (Sunnyvale, Calif.). The IC50 was determined from the rate data as a function of inhibitor concentration.

[2] = target: T1, full length recombinant human Src kinase (Homo sapiens, UniProt P12931); experiment: Src inhibition assay (33P incorporation into poly Glu-Tyr); settings: for Ki: 10 μM ATP, read-out: Activity in the SRC Inhibition Assay (Ki rating A-C); for inhibition at 2 µM: at a 2 μM inhibitor concentration, read-out: Activity in the SRC Inhibition Assay (percent inhibition rating D-F)
T1 construct: full length recombinant human Src kinase; purchased Upstate Biotechnology 14-117; host or cells: baculo viral cells (baculovirus expression)
T1 sequence (P12931 whole entry): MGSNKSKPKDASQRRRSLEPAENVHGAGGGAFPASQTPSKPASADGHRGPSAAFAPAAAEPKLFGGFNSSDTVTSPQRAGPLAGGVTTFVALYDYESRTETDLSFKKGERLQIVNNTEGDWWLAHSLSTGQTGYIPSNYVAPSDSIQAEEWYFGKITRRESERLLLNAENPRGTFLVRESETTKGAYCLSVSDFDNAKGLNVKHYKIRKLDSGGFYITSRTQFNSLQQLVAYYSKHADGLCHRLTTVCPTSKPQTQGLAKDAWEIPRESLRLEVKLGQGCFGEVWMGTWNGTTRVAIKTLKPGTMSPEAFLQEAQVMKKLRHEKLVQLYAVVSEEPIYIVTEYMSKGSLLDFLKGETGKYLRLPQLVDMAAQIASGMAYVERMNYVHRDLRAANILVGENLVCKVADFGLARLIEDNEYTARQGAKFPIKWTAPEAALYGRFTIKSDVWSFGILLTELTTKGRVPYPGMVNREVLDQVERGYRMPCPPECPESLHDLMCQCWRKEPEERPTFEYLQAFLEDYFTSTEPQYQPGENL
Experimental: The compounds were assayed as inhibitors of full length recombinant human Src kinase (from Upstate Biotechnology, cat. no. 14-117) expressed and purified from baculo viral cells. Src kinase activity was monitored by following the incorporation of ^33P from ATP into the tyrosine of a random poly Glu-Tyr polymer substrate of composition, Glu:Tyr=4:1 (Sigma, cat. no. P-0275). The following were the final concentrations of the assay components: 0.05 M HEPES, pH 7.6, 10 mM MgCl2, 2 mM DTT, 0.25 mg/ml BSA, 10 μM ATP (1-2 μCi ^33P-ATP per reaction), 5 mg/ml poly Glu-Tyr, and 1-2 units of recombinant human Src kinase. In a typical assay, all the reaction components with the exception of ATP were pre-mixed and aliquoted into assay plate wells. […] The assay plate was incubated at 30° C. for 10 min before initiating the reaction with ^33P-ATP. After 20 min of reaction, the reactions were quenched with 150 μl of 10% trichloroacetic acid (TCA) containing 20 mM Na3PO4. The quenched samples were then transferred to a 96-well filter plate (Whatman, UNI-Filter GF/F Glass Fiber Filter, cat no. 7700-3310) installed on a filter plate vacuum manifold. Filter plates were washed four times with 10% TCA containing 20 mM Na3PO4 and then 4 times with methanol. 200 μl of scintillation fluid was then added to each well. The plates were sealed and the amount of radioactivity associated with the filters was quantified on a TopCount scintillation counter.

activated JNK3 = target: T2, activated JNK3 (Homo sapiens, UniProt P53779); experiment: JNK inhibition assay (spectrophotometric coupled-enzyme assay); settings: for Ki: 10 nM activated JNK3, 10 μM ATP, read-out: Activity in the JNK3 Inhibition Assay (Ki rating A-C)
T2 construct: One such construct encodes amino acid residues Ser40-Glu402 of JNK3α1 and is preceded by Met and Gly residues; Met-Gly (initiator methionine and added glycine) (N); made in house; host or cells: E. coli BL21 (DE3)
T2 sequence (P53779 40-402): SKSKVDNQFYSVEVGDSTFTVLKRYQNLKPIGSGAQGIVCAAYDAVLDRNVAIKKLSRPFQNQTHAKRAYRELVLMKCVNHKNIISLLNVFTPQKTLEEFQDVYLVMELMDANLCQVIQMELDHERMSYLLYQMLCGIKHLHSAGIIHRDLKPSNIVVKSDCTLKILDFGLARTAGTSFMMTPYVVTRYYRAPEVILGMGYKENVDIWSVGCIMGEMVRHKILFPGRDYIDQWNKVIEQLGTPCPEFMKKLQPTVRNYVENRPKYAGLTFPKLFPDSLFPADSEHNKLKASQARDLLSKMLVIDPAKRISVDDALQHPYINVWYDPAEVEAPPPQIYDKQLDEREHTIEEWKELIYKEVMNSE
Procedure, shortened: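 Activated (doubly phosphorylated, MKK7(DD)-activated) human JNK3, 10 nM, preincubated 10 min at 30 °C with inhibitor in 0.1 M HEPES pH 7.5, 10 mM MgCl2, 200 μM EGF receptor peptide, PK/LDH-coupled. Started with 10 μM ATP; A340 decrease followed at 30 °C. Ki from competitive inhibition model fit.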

CDK-2/Cyclin A = CDK-2/Cyclin A (Homo sapiens, UniProt P24941); experiment: CDK2 inhibition assay (standard coupled enzyme assay); settings: 25 nM CDK-2/Cyclin A; read-out: CDK2 Inhibitory Activity (Ki rating A-C)
Procedure, shortened: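 CDK-2/Cyclin A (25 nM final) started the reaction after 10-min, 30° C preincubation of compound (30 μM final) with peptide (100 μM), ATP and coupling enzymes in HEPES pH 7.5.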

[3] = target: T3, Lck kinase purified from bovine thymus (Bos taurus, UniProt Q3ZCM0); experiment: Lck inhibition assay (33P incorporation into poly Glu-Tyr); settings: for Ki: 10 μM ATP, read-out: Activity in the Lck Inhibition Assay (Ki rating A-C)
T3 construct: Lck kinase purified from bovine thymus; purchased Upstate Biotechnology 14-106; host or cells: bovine thymus (tissue-purified)
T3 sequence (Q3ZCM0 1-509): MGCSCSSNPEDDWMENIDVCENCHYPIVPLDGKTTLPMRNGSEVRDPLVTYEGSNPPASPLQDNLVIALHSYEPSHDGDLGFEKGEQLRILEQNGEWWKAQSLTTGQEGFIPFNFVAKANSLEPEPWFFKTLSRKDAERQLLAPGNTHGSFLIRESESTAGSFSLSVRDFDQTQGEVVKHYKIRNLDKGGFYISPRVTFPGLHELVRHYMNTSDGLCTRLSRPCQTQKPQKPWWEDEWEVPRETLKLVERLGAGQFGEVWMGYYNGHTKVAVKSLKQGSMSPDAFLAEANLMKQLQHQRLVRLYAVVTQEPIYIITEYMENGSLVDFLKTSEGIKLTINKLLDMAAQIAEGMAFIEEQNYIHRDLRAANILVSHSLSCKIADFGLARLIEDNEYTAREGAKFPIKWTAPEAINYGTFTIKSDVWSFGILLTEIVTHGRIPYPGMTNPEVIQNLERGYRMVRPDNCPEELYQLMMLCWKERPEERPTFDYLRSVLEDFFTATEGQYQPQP
Procedure, shortened: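 Filter-binding radiometric assay of 33P transfer from ATP to poly Glu-Tyr (4:1, 5 mg/ml) by bovine thymus Lck in 0.05 M HEPES pH 7.6, 10 mM MgCl2, 2 mM DTT, 0.25 mg/ml BSA, 10 μM ATP. After 10 min at 30° C, reaction started with 33P-ATP, run 20 min, quenched with TCA; filter-bound radioactivity counted by scintillation.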

SMILES	Ki [1]	Ki [2]	Ki (activated JNK3)	Ki (CDK-2/Cyclin A)	inhibition at 2 µM [2]	other results
COc1cc(-c2ccnc(Nc3ccc(Cl)cc3)n2)cc(OC)c1OC [Compound I-1]	> 1000 nM	> 1000 nM	100 to 1000 nM	> 5000 nM	–	–
COc1cc(-c2ccnc(Nc3ccc(F)cc3)n2)cc(OC)c1OC [Compound I-3]	–	–	< 100 nM	> 5000 nM	< 33%	Ki [3]: > 1000 nM
COc1cc(-c2ccnc(NC3CCCCC3)n2)cc(OC)c1OC [Compound I-4]	> 1000 nM	> 1000 nM	100 to 1000 nM	> 5000 nM	–	–
COc1cc(Nc2nccc(-c3cc(OC)c(OC)c(OC)c3)n2)cc(OC)c1 [Compound I-12]	100 to 1000 nM	–	< 100 nM	> 5000 nM	< 33%	–
COc1cc(-c2ccnc(Nc3cccc(F)c3F)n2)cc(OC)c1OC [Compound I-13]	–	–	< 100 nM	> 5000 nM	24 to 66%	–
COc1c(Br)cc(-c2ccnc(Nc3cccc(F)c3)n2)cc1Br [Compound I-48]	100 to 1000 nM	–	100 to 1000 nM	–	24 to 66%	–
CCOc1c(OC)cc(-c2ccnc(Nc3cccc(OC)c3)n2)cc1OC [Compound I-50]	–	–	< 100 nM	–	67 to 100%	–
COc1cc(-c2ccnc(Nc3cccc(O)c3)n2)cc(OC)c1OC [Compound I-58]	–	–	< 100 nM	–	24 to 66%	–
COc1cc(-c2ccnc(Nc3cccc(Br)c3)n2)cc(OC)c1OC [Compound I-59]	< 100 nM	–	< 100 nM	> 5000 nM	67 to 100%	–
COc1cc(-c2ccnc(Nc3cccc(F)c3)n2)cc(OC)c1OC [Compound I-60]	–	–	< 100 nM	> 5000 nM	67 to 100%	–
COc1cc(-c2ccnc(Nc3ccc(Cl)nc3)n2)cc(OC)c1OC [Compound I-61]	–	–	< 100 nM	> 5000 nM	< 33%	–
COc1cc(-c2ccnc(Nc3ccc4ccccc4c3)n2)cc(OC)c1OC [Compound I-62]	100 to 1000 nM	–	< 100 nM	–	< 33%	–
COc1cc(-c2ccnc(Nc3ccc4c(c3)OCO4)n2)cc(OC)c1OC [Compound I-63]	–	–	< 100 nM	–	24 to 66%	–
COc1ccc(Nc2nccc(-c3cc(OC)c(OC)c(OC)c3)n2)cc1OC [Compound I-64]	100 to 1000 nM	–	–	–	67 to 100%	Activity in the JNK3 Inhibition Assay (percent inhibition rating D-F) (activated JNK3; at a 2 μM inhibitor concentration): F (percent inhibition of between 67% and 100%)
COc1cc(-c2ccnc(Nc3ccc(S(N)(=O)=O)cc3)n2)cc(OC)c1OC [Compound I-66]	< 100 nM	–	< 100 nM	< 2000 nM	–	Activity in the Lck Inhibition Assay (percent inhibition rating D-F) ([3]; at a 5 μM inhibitor concentration): E (percent inhibition of between 24% and 66%)
COc1cc(-c2ccnc(Nc3ccc(Cl)nc3)n2)cc(OC)c1O [Compound I-73]	–	–	< 100 nM	–	24 to 66%	–
COc1cc(-c2ccnc(Nc3ccccc3)n2)cc2c1OCCO2 [Compound I-74]	–	–	< 100 nM	–	24 to 66%	–
COc1cc(-c2ccnc(Nc3cccc(Cl)c3)n2)cc2c1OCCO2 [Compound I-75]	< 100 nM	–	< 100 nM	–	67 to 100%	–
COc1cc(-c2ccnc(Nc3ccc(Cl)cc3)n2)cc2c1OCCO2 [Compound I-76]	–	–	< 100 nM	–	24 to 66%	–

SMILES	Ki [1]	Ki [2]	Ki (activated JNK3)	Ki (CDK-2/Cyclin A)	inhibition at 2 µM [2]	other results
COc1ccc(Nc2nccc(-c3cc(OC)c4c(c3)OCCO4)n2)cc1 [Compound I-78]	–	–	< 100 nM	–	24 to 66%	–
COc1cc(-c2ccnc(Nc3cccc(F)c3)n2)cc2c1OCCO2 [Compound I-79]	–	–	< 100 nM	–	24 to 66%	–
COc1cc(-c2ccnc(Nc3ccc(F)cc3)n2)cc2c1OCCO2 [Compound I-80]	–	–	< 100 nM	–	24 to 66%	–
COc1cc(-c2ccnc(Nc3cccc(C)c3)n2)cc2c1OCCO2 [Compound I-81]	–	–	< 100 nM	–	67 to 100%	–
COc1cc(-c2ccnc(Nc3ccc(C)cc3)n2)cc2c1OCCO2 [Compound I-82]	–	–	< 100 nM	–	< 33%	–
COc1ccc(-c2ccnc(Nc3cccc(Oc4ccccc4)c3)n2)c(OC)c1OC [II-1]	–	< 100 nM	–	–	–	Ki [3]: < 100 nM
COc1ccc(-c2ccnc(Nc3cccc(S(=O)(=O)c4ccccc4)c3)n2)c(OC)c1OC [II-24]	–	< 100 nM	–	–	–	Ki [3]: 100 to 1000 nM
COc1ccc(-c2ccnc(Nc3cccc(-c4ccccc4C)c3)n2)c(OC)c1OC [II-62]	–	100 to 1000 nM	–	> 5000 nM	–	Ki [3]: > 1000 nM
COc1ccc(-c2ccnc(Nc3cccc(-c4ccc(C)cc4)c3)n2)c(OC)c1OC [II-63]	–	< 100 nM	–	–	–	Ki [3]: 100 to 1000 nM
COc1ccc(-c2cccc(F)c2)cc1Nc1nccc(-c2ccc(OC)c(OC)c2OC)n1 [II-64]	> 1000 nM	< 100 nM	–	–	–	–
COc1ccc(-c2cccc(Cl)c2)cc1Nc1nccc(-c2ccc(OC)c(OC)c2OC)n1 [II-65]	> 1000 nM	100 to 1000 nM	–	–	–	–
COc1ccc(-c2ccnc(Nc3cc(-c4cccc(Cl)c4)ccc3F)n2)c(OC)c1OC [II-66]	> 1000 nM	> 1000 nM	–	–	–	–
COc1ccc(Nc2nccc(-c3ccc(OC)c(OC)c3OC)n2)cc1-c1cccc(Cl)c1 [II-67]	< 100 nM	< 100 nM	–	–	–	–
COc1ccc(Nc2nccc(-c3ccc(OC)c(OC)c3OC)n2)cc1-c1ccc(Cl)cc1 [II-68]	< 100 nM	100 to 1000 nM	–	–	–	–
COc1ccc(Nc2nccc(-c3ccc(OC)c(OC)c3OC)n2)cc1-c1cccc(F)c1 [II-69]	< 100 nM	< 100 nM	–	–	–	–
COc1ccc(Oc2cc(Nc3nccc(-c4ccc(OC)c(OC)c4OC)n3)ccc2OC)cc1 [II-73]	< 100 nM	–	–	> 5000 nM	–	Ki [3]: < 100 nM
COc1ccc(Nc2nccc(-c3ccc(OC)c(OC)c3OC)n2)cc1Oc1cccc(Cl)c1 [II-74]	< 100 nM	–	–	> 5000 nM	–	Ki [3]: < 100 nM
COc1cccc(Oc2cc(Nc3nccc(-c4ccc(OC)c(OC)c4OC)n3)ccc2OC)c1 [II-75]	< 100 nM	–	–	> 5000 nM	–	Ki [3]: < 100 nM
CCOc1ccc(Oc2cc(Nc3nccc(-c4ccc(OC)c(OC)c4OC)n3)ccc2OC)cc1 [II-76]	100 to 1000 nM	–	–	> 5000 nM	–	Ki [3]: < 100 nM
